Measurements published in patent publication US4875925A, “Herbicidal method using diflufenican” (May & Baker Limited, priority 1986, dated 1989).

Assays:
Type in all cases: in vivo
[1] = system: Lamium purpureum; experiment: Field control of Lamium purpureum in winter barley and winter wheat (Experiment 3); conditions: diflufenican 80 g/ha, trifluralin 800 g/ha, or both; for % weed phytotoxicity 72 days after spraying: in winter barley (variety Igri); for % weed phytotoxicity 98 days after spraying: in winter wheat (variety Galahad)
From the text: (§1) Diflufenican formulated as a 50% w/v aqueous suspension concentrate (Example 2), trifluralin as a 48% w/v emulsifiable concentrate (commercial product and a mixed formulation of diflufenican and trifluralin containing 44% w/v total active ingredient (Example 6) were applied at 0.16 l, 1.67 l and 2 l/ha respectively pre-emergence and just at emergence to winter barley and winter wheat to control Lamium purpureum pre-emergence under field conditions. The treatments were applied to three replicate 30 m^2 plots in a spray volume of 220 l/ha (winter barley) and 206 l/ha (winter wheat) using a motorised small plot sprayer. Visual % phytotoxicity was recorded and the results are given below.

[2] = system: Winter wheat (variety Galahad); experiment: Field crop phytotoxicity, winter wheat (Experiment 3); conditions: diflufenican 80 g/ha, trifluralin 800 g/ha, or both
From the text: as §1

[3] = system: Winter barley (variety Igri); experiment: Field crop phytotoxicity, winter barley (Experiment 3); conditions: diflufenican 80 g/ha, trifluralin 800 g/ha, or both
From the text: as §1

[4] = system: Stellaria media; experiment: Greenhouse post-emergence weed control, Stellaria media (Experiment 2); conditions: 2 leaf stage, 14 days after treatment
Method: (§2) Greenhouse experiment showing the nature of biological synergism between pendimethalin and diflufenican applied post-emergence
(§3) A similar experiment to that hereinbefore described in Experiment 1 was carried out with pendimethalin and diflufenican applied to either 4 plants of Stellaria media at the 2 leaf stage or 4 plants of Galium aparine at the 2 whorl (branching initiated) stage. The following 90% herbicidally effective doses (ED90) in grams of diflufenican per hectare were calculated from the mean percentage weed control 14 days after treatment.

[5] = system: Alopecurus myosuroides; experiment: Greenhouse pre-emergence weed control, pendimethalin and diflufenican (Experiment 1); conditions: 22 days after treatment
Method: Greenhouse experiment showing the nature of biological synergism between pendimethalin and diflufenican applied pre-emergence
A factorial experiment with 30 treatments was carried out to investigate the interaction of pendimethalin and diflufenican at a wide range of doses i.e. 0, 250, 500, 1000 and 2000 g/ha of pendimethalin plus diflufenican at 0, 31, 62, 125, 250 and 500 g/ha.
All treatments were made in an appropriate volume of water by using appropriate quantities of a 33% w/v emulsifiable concentrate of pendimethalin (commercial product) and diflufenican formulated as an experimental aqueous suspension concentrate (Example 2 hereinafter) containing 50% w/v active ingredient to give the above dose rates in a spray volume of 290 l/ha. All treatments were applied using a laboratory sprayer fitted with a Sparying Systems Teejet SS 8003E operating at 2.94 kgf/cm^2. Treatments were applied to about 20 Alopecurus myosuroides seeds sown 1 cm deep in a loamy soil in 7.5 cm square pots. There were 4 replicate pots per treatment which were arranged in a randomised block design in a glasshouse after treatment. The pots were watered by a combination of overhead irrigation and sub-irrigation. A visual assessment of weed control was made 22 days after treatment as a percentage compared to the untreated pots. […]

[6] = system: Galium aparine; experiment: Greenhouse post-emergence weed control, Galium aparine (Experiment 2); conditions: 2 whorl stage, 14 days after treatment
Method: as §2, §3

| Structure (SMILES) | % weed phytotoxicity 72 days after spraying [1] [%] | % weed phytotoxicity 98 days after spraying [1] [%] | Maximum % crop phytotoxicity [2] [%] | Maximum % crop phytotoxicity [3] [%] | ED90 (90% herbicidally effective dose) ([4]; diflufenican alone) | ED50 (50% herbicidally effective dose) ([5]; diflufenican alone) | ED90 (90% herbicidally effective dose) ([6]; diflufenican alone) | ED90 of pendimethalin alone ([4]; pendimethalin alone) [g/ha] | ED50 of pendimethalin alone ([5]; pendimethalin alone) [g/ha] | ED90 of pendimethalin alone ([6]; pendimethalin alone) |
| --- | --- | --- | --- | --- | --- | --- | --- | --- | --- | --- |
| CCCN(CCC)c1c([N+](=O)[O-])cc(C(F)(F)F)cc1[N+](=O)[O-] [Trifluralin, 2,6-dinitro-N,N-dipropyl-4-trifluoromethylaniline] | 20 | 5 | 0 | 0 |  |  |  |  |  |  |
| O=C(Nc1ccc(F)cc1F)c1cccnc1Oc1cccc(C(F)(F)F)c1 [diflufenican, N-(2,4-difluorophenyl)-2-(3-trifluoromethylphenoxy)nicotinamide] | 40 | 80 | 0 | 5.8 | 340 grams of diflufenican per hect | 370 grams of diflufenican per hect | > 500 grams of diflufenican per hect |  |  |  |
| CCC(CC)Nc1c([N+](=O)[O-])cc(C)c(C)c1[N+](=O)[O-] [pendimethalin, N-(1-ethylpropyl)-3,4-dimethyl-2,6-dinitroaniline] |  |  |  |  |  |  |  | 1653 | 2071 | greater than 2000 g/ha |
